According to PMC6797808, “Fucosylated inhibitors of recently identified bangle lectin from Photorhabdus asymbiotica” (Scientific Reports, 2019):
Values after ≈ are worked out from the molar mass of the structure shown.

Target: PHL (Photorhabdus asymbiotica, UniProt C7BLE4)
Assay: Hemagglutination inhibition assay with PHL (papain-treated human RBCs O)
Assay type: cell-based
Details: for MIC (minimal inhibitory concentration, hemagglutination by PHL): RBC O, two independent measurements; for PotencyL-Fuc: MIC L-fucose / MIC ligand; for β L-Fuc (affinity improvement factor): MICbasic unit/(valency × MICligand), basic unit L-Fuc; for β Azide1 (affinity improvement factor): basic unit azide 1
Method: The set of potential ligands 1–10 with different levels of fucosylation was tested, and their inhibition potency on hemagglutination by PHL was assessed (Table 1, Fig. 2). […] To assess the contribution of valency to the affinity increase, an affinity improvement factor β was calculated as the relationship MICbasic unit/(valency × MICligand).
Human red blood cells (RBCs) O were processed according to previously published work[16]. In brief, RBCs O treated with sodium citrate were washed four times by PBS buffer (137 mM NaCl, 2.7 mM KCl, 8 mM Na2HPO4, 1.47 mM KH2PO4, pH 7.4), diluted to 50% by PBS with 0.005% (w/w) sodium azide and treated by 0.1% papain for the duration of 30 minutes.
Hemagglutination inhibition assay was performed for specificity and semi-quantitative affinity of the PHL interaction with the compounds. All carbohydrate inhibitors in 50 mM starting concentration were serially diluted in the PBS buffer and used for a determination of the lowest inhibiting concentration. As a blank, the PBS buffer supplemented with the appropriate amount of DMSO was used in order to exclude potential interference with the interaction. The individual samples were mixed with the lectin in concentration 2 mg/ml in a 5 μl:5 μl ratio. Thereafter, 10 μl of 10% RBCs O in PBS buffer was added, thoroughly mixed and incubated for 10 minutes at room temperature. Following incubation, the mixture was again mixed and the reaction was observed on microscope slides using Levenhuk 2L NG microscope with Levenhuk D2L digital camera (Levenhuk, USA). Imagines were obtained via software ToupView for Windows (Levenhuk). The positive (PHL without inhibitor) and negative control (reaction without PHL) were prepared and processed in the same way using the appropriate volume of PBS buffer instead of the not included components. The lowest concentration of inhibitor able to inhibit agglutination was determined and compared with the standard (L-fucose). Minimal inhibitory concentrations (MIC) of synthesised inhibitors were determined from two independent measurements.

Sequence of PHL (C7BLE4 entry or part of it): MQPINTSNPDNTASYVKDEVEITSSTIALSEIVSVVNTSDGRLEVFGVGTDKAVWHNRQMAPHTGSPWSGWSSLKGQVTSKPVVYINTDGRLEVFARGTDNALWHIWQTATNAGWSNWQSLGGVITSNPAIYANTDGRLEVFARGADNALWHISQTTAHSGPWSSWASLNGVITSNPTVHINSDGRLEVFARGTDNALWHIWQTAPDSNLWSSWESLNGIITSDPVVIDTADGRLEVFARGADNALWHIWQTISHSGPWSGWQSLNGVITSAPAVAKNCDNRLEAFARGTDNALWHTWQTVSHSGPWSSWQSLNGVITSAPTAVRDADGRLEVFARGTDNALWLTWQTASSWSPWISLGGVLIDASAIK

Row | Compound | MIC (minimal inhibitory concentration, hemagglutination by PHL) [µM] | PotencyL-Fuc (hemagglutination) | PotencyL-Fuc (hemagglutination, listed as azide 1) | β L-Fuc (affinity improvement factor) (hemagglutination) | β Azide1 (affinity improvement factor) (hemagglutination) | PotencyAzide1 (hemagglutination, relative to azide 1)
1 | C[C@@H]1O[C@@H](CCN=[N+]=[N-])[C@@H](O)[C@H](O)[C@@H]1O [Azide 1] | 200 (≈ 43.4 µg/mL) | 15.6 | 16 | 15.6 | 1 | 
2 | C[C@@H]1O[C@@H](CCn2cc(COCC(COCc3cn(CC[C@@H]4O[C@@H](C)[C@@H](O)[C@@H](O)[C@@H]4O)nn3)(COCc3cn(CC[C@@H]4O[C@@H](C)[C@@H](O)[C@@H](O)[C@@H]4O)nn3)COCc3cn(CC[C@@H]4O[C@@H](C)[C@@H](O)[C@@H](O)[C@@H]4O)nn3)nn2)[C@@H](O)[C@H](O)[C@@H]1O [Dendrimer 8] | 50 (≈ 57.9 µg/mL) | 62.5 |  | 15.6 | 1 | 4
